Assay results as given in patent US20210101905A1, “Development of Imaging and Therapeutic Glucose Analogues for Sodium Dependent Glucose Transporters” (Llnited States Government as represented by the Department …, priority 2019, published 2021).

What was measured:
[1] = system: metastatic prostate cancer; details: men with metastatic prostate cancer, phase III; cited from earlier work
[2] = system: SGLTs and GLUTs; details: prior work; cited from earlier work
[3] = rat, in vivo; cited from earlier work
[4] = system: PC-3; test: 6FGA uptake in PC-3 cells, with and without transporter inhibitors or sodium; assay type: cell-based, human; details: PC3 cell line
Procedure: See FIG. 2A-D. Its transport properties were evaluated in two human metastatic cancer cell lines: triple negative breast cancer MDA-MB-231 and human prostate cancer (PC-3). […] See also FIG. 5A, FIG. 5B, and FIG. 6.
The assays are performed from a modified protocol as we have done previously, and from flow cytometry formats (Zou ry al. (2005) J Biochem Biophys Methods 64:207-15; Landau et al. (2007) American journal of physiology Endocrinology and metabolism 293:E237-45). In brief, cells are grown to confluence using recommended growth media in 96-well plates. […] The cells are detached with trypsin and resuspended in PBS. The cells are analysed using flow cytometry with the Cy5.5 filter set (excitation 685 nm, exmission 710 nm) gated for 250,000 counts.

For `[Cl][223Ra][Cl]` [Xofigo, ^223RaCl2], which adverse events [1] is on record?
The adverse events was “low rates of myelosuppression and few adverse events”.

What about the overall survival [1] of the same molecule?
Its overall survival is “improve overall survival”.

Which “transport by SGLTs / GLUTs” value [2] does the source give for `O=C[C@H](O)[C@@H](O)[C@H](O)[C@H](O)C[18F]` [[18F]6FDG, 18F-labelled 6-fluoro-6-deoxy-D-glucose] here?
The value was “transported by SGLTs and GLUTs”.

And the “activity in the bladder” value [3]?
Its value is “no activity was evident in the bladder”.

And the renal handling [3]?
Its renal handling is “reabsorbed in proximal tubules of kidneys”.

With `OC[C@H]1OC(O)[C@H]([18F])[C@@H](O)[C@@H]1O` (stereo partly drawn) [[^18F]FDG, ^18F-labeled 2-fluoro-2-deoxy-D-glucose] as the molecule, how does the “transport by SGLTs / GLUTs” value [2] read?
Its value is “poorly transported by SGLTs”.

Which “effect of inhibitor on 6FGA uptake” value [4] does the source give for `C=C1[C@@H](C)[C@H]2[C@H](Cc3ccccc3)NC(=O)[C@]23OC(=O)/C=C/[C@H](O)CCC[C@@H](C)C/C=C/[C@H]3[C@@H]1O` [cytochalasin B] here?
The value was “not blocked”.

With `O=C(CCc1ccc(O)cc1)c1c(O)cc(O)cc1O[C@@H]1O[C@H](CO)[C@@H](O)[C@H](O)[C@H]1O` [phlorizin] as the molecule, how does the “effect of inhibitor on 6FGA uptake” value [4] read?
Its value is “blocked”.
